One assay has as its system BxPC-3 tumors. The experiment in a line: In vivo tumor growth assay (xenograft). On the set-up: species or system nu/nu mice. The conditions noted are these: 12.5 mg/kg intraperitoneally. The method, then:
FIG. 4. Inhibition of tumor growth in vivo by fendiline. Nu/nu mice implanted with BxPC-3 or MIAPaCa-2 tumors were treated with vehicle (DMSO) or fendiline (12.5 mg/kg) intraperitoneally and tumor sizes were measured with an external caliper every 3-4 days. Time and fendiline treatment affected MiaPaCa2 xenograft growth (2-way ANOVA, p=0.027).
Early passage BxPC-3 or MIAPaCa-2 cells were harvested, and 2-3X106 cells were implanted into the right flanks of nu/nu mice. The animals were randomized into control and treated groups (10 mice per group). Tumor volume (V) was measured with an external caliper every 3-4 days and it was calculated as V=0.52 (length×width2). Drug treatment was initiated 4 days after tumor implantation. Drugs were injected daily intraperitoneally (at doses indicated) for 5 days, with 2 days of no treatment in between. All treatments were continued until any of the subcutaneous tumors reached 1500 mm3 in volume or for 6 weeks (whichever was first), when all the animals were sacrificed and the tumors removed.

In a further assay the target is human ASM (SMPD1)-GFP (Homo sapiens (Human), UniProt P17405). The experiment in a line: ASM activity assay (Amplex Red SMase kit, lysates of treated cells). It is filed as cell-based. As to conditions: 5 μM compound for 48 h. The procedure: FIG. 6A-C. (A) Dose response curves quantifying the extent of KRASG12V and LactC2 mislocalization after 48 h treatment with compounds. Mislocalization was quantified using Manders coefficients as the fraction of mCherry-CAAX co-localizing with mGFP-KRASG12V or GFP-LactC2. (B) ASM activity in cell stably expressing GFP-tagged SMPD1 treated with DMSO or 5 μM compound for 48 h. (C) Representative western blots and quantitation of SMPD1-GFP levels in cells treated with 5 μM compounds for 48 h. (D) Representative confocal images of MDCK cells stably co-expressing mGFP-KRASG12V and mCherry-CAAX treated with 10 μM compound 6 or 1 μM of compounds 12f (NY0244), 12h (NY0331) or 22 (NY0335) for 48 h (-ASM), then incubated with recombinant ASM in the continued presence of drugs for a further 60 min (+ASM). Mislocalization was quantified using Manders coefficients as the fraction of mCherry-CAAX co-localizing with mGFP-KRASG12V.
human ASM (SMPD1)-GFP, sequence (P17405 47-631): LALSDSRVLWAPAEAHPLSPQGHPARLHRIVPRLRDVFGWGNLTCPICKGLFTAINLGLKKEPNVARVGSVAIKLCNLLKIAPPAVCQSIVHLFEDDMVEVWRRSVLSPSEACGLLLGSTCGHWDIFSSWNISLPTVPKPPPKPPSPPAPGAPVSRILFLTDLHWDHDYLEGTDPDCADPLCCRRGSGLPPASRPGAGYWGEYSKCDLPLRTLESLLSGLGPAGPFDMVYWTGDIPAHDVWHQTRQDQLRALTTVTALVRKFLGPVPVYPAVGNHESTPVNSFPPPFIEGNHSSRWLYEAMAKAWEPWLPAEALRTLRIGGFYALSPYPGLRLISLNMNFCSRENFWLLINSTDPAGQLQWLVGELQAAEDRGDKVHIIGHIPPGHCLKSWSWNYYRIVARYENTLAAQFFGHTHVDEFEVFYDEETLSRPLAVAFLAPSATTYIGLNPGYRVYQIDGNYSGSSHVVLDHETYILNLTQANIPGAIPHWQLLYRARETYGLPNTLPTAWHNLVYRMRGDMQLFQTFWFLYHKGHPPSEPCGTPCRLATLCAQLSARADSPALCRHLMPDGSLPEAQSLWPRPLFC
ASM Activity Assay. The ASM activity assay was performed with Amplex Red SMase Assay Kit (A12220; Invitrogen; Carlsbad, CA) according to the manufacturer's instructions. […] The plate was further incubated in the dark in 37° C. for 60 min, and the fluorescence was measured using BioTek Synergy H1 microplate reader (excitation λ=540 nm, emission λ=590 nm). […]

Another assay has as its system cleaved caspase 3 (CC3). The experiment in a line: Immunohistochemistry of tumor sections, cleaved caspase 3. On the set-up: species or system nu/nu mice. The conditions noted are these: mouse, in vivo. The procedure:
Immunohistochemistry. 4-5 μm sections were deparaffinized, rehydrated, and treated with 10 mM sodium citrate for heat induced antigen retrieval. After quenching endogenous peroxidase, and blocking with 2.5% normal goat serum (Vector Laboratories S-1012), sections were incubated overnight at 4° C. with primary antibody diluted in blocking solution as recommended by manufacturer (Cell Signaling). Controls were incubated with diluted normal rabbit IgG. After incubation with biotinylated secondary antibody diluted 1:250 in blocking serum for 45 min at rt, sections were incubated with VECTASTAIN ABC reagent for 30 min, and for development of the DAB chromogen the Quanto substrate was used. Slides were counter stained with Hematoxylin. Five fields per stained section per xenograft were photographed at 10X. CC3+ and pERK+ area and number of events per field were quantitated via automated image analysis (NIS Elements BR analysis ver. 4.13.04). Vessel number and lumen area per field used the same software with manual settings to trace vessel wall contours. Antibodies used are as follows: CC3: Cell Signaling #9661, use at 1:300. […]

Assay [1] deals with MAPK pathway inhibitors such as trametinib. In words: Combination with MAPK pathway inhibitors. The conditions noted are these: preliminary findings.

In the case of `CC(NCCC(c1ccccc1)c1ccccc1)c1ccccc1` (centres unmarked) [Fendiline], the BxPC-3 xenograft growth entry in the assay with BxPC-3 tumors is “No significant effects”. `COc1ccc([C@@H](C)N(CC=C(c2ccccc2)c2ccccc2)CCN2CCCC2)cc1` [NY0331, (R)-N-(1-(4-methoxyphenyl)ethyl)-3,3-diphenyl-N-(2-(pyrrolidin-1-yl)ethyl)prop-2-en-1-amine]: the “inhibition of ASM” value at human ASM (SMPD1)-GFP is “most potent”. In addition, the “cleaved caspase 3 (CC3) in tumors” value in the assay on cleaved caspase 3 (CC3) is reported as “increased”. Also, in assay [1], the “synergy with MAPK pathway inhibitors” value was “synergizes”. For the molecule `COc1ccc([C@@H](C)N(CC=C(c2ccccc2)c2ccccc2)CCCN2CCN(C)CC2)cc1` [NY0335, (R)-N-(1-(4-methoxyphenyl)ethyl)-N-(3-(4-methylpiperazin-1-yl)propyl)-3,3-diphenylprop-2-en-1-amine], the “cleaved caspase 3 (CC3) in tumors” value in the assay with cleaved caspase 3 (CC3) is reported as “increased”.

Values taken from patent US12043602B2, “Fendiline derivatives” (The Board of Regents of the University of Texas System, priority 2019, dated 2024).
